These results are taken from patent publication US20250114460A1, “NOVEL PLK1 DEGRADATION INDUCING COMPOUND” (UPPTHERA, INC., priority 2021, published 2025).

Type in all cases: cell-based
The target of one assay is T1, PLK1 (Homo sapiens, UniProt P53350).
T1 construct: endogenous in cells; host or cells: HeLa LgBit (Plk1-HiBit KI): HeLa stably expressing LgBit, with a CRISPR/Cas9 knock-in of HiBit at the endogenous PLK1 locus
Kind of assay: Luciferase assay for PLK1 in HeLa LgBit (Plk1-HiBit KI) cell line. Particulars: 300 nM compound, luminescence after 9 hours. A digest of the protocol: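 HeLa cells stably expressing LgBit, with HiBit knocked in at the C-terminus of endogenous Plk1, released from a 24 h 2 mM thymidine block and grown 18 h. Endurazine added, then compound at 300 nM; luminescence tracked in real time, expressed as ratio to DMSO.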
Background: HiBiT is a short tag that completes a luciferase, so light tracks the accessible tagged protein.

A further assay concerns NCI-H526 cell line. Kind of assay: Cell viability assay for H526 cell (EZ-Cytox). As to conditions: Homo sapiens, NCI-H526, 120 h; H526 cells, 5 days, 3000 nM to 0.46 nM. Summed up:
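NCI-H526 cells were exposed to compound in CO2 incubator culture for 5 days. Viability was read by EZ-Cytox absorbance at 450 nm after 3 min shaking, giving IC50 values.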

Another assay concerns MRC-5 cell line. Briefly: Cell viability assay for MRC-5 cell line (EZ-Cytox). Particulars: Homo sapiens, MRC5, 120 h, read-out: Activity: IC50 value of Exemplary Compound to MRC-5 cell line. The protocol: 4. Cell Viability Assay for MRC-5 Cell Line
(1) Culture of MRC-5 Cell Line
Passage of cultured cells was maintained within P15.
(2) Treatment of Compounds of the Present Invention
Then, it was cultured in 37° C.
(3) Cytotoxicity Experiment
CO2 incubator for 4 hours.

Setting [1] is: MRC-5 normal cell line, 5 days, 10000 nM to 1.52 nM, N.D. = no cytotoxicity until 10 μM.

Where two headings read alike, the source gives them in different places. Where only a bound is given, the exact number is not on record here.

T1 sequence (P53350 whole entry): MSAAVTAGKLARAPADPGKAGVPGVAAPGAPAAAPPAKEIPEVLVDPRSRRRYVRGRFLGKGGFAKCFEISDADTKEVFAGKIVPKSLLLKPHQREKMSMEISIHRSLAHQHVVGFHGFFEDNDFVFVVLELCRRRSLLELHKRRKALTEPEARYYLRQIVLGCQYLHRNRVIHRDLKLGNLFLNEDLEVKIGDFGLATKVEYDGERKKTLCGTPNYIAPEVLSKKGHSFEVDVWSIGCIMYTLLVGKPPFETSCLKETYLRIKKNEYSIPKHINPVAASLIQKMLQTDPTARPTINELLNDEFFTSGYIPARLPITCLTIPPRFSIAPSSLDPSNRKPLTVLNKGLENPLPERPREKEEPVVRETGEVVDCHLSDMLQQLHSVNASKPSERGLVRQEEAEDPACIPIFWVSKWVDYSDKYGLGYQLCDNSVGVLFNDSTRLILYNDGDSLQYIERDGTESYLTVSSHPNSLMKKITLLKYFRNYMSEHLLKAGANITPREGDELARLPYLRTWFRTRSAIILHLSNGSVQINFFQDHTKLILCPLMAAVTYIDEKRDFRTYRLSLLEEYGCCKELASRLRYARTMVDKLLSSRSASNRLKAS

Take `COc1cc(C(=O)NC2CCN(C(=O)CCN3CCN(c4cccc5c4C(=O)N(C4CCC(=O)NC4=O)C5=O)CC3)CC2)ccc1Nc1ncc2c(n1)N(C1CCC1)CC(F)(F)C(=O)N2C` (stereo not drawn) [Compound 68, 4-((9-cyclobutyl-7,7-difluoro-5-methyl-6-oxo-6,7,8,9-tetrahydro-5H-pyrimido[4,5-b][1,4]diazepin-2-yl)amino)-N-(1-(3-(4-(2-(2,6-dioxopiperidin-3-yl)-1,3-dioxoisoindolin-4-yl)piperazin-1-yl)propanoyl)piperidin-4-yl)-3-methoxybenzamide]: on PLK1, the “Activity: ratio of the luminescense value of each Exemplary Compound treatment group to DMSO treatment group” value (“Activity: ratio” for short) was “+++ (+++: <0.3)”. Further, the IC50 was less than 0.1 µM in the assay on NCI-H526 cell line and more than 10 µM in the assay with MRC-5 cell line (setting [1]).
In the same order, the values of `CN1C(=O)C(F)(F)CN(C2CCCC2)c2nc(Nc3ccc(C(=O)NC4CCN(C(=O)CCN5CCN(c6cccc7c6C(=O)N(C6CCC(=O)NC6=O)C7=O)CC5)CC4)cc3OC(F)(F)F)ncc21` (stereo not drawn) [Compound 74, 4-((9-cyclopentyl-7,7-difluoro-5-methyl-6-oxo-6,7,8,9-tetrahydro-5H-pyrimido[4,5-b][1,4]diazepin-2-yl)amino)-N-(1-(3-(4-(2-(2,6-dioxopiperidin-3-yl)-1,3-dioxoisoindolin-4-yl)piperazin-1-yl)propanoyl)piperidin-4-yl)-3-(trifluoromethoxy)benzamide] are “++ (++<0.6)”, less than 0.2 µM and more than 10 µM.
For the compound `Cc1cc(C(=O)NC2CCN(C(=O)CCN3CCN(c4cccc5c4C(=O)N(C4CCC(=O)NC4=O)C5=O)CC3)CC2)ccc1Nc1ncc2c(n1)N(C1CCCC1)CC(F)(F)C(=O)N2C` (stereo not drawn) [Compound 71, 4-((9-cyclopentyl-7,7-difluoro-5-methyl-6-oxo-6,7,8,9-tetrahydro-5H-pyrimido[4,5-b][1,4]diazepin-2-yl)amino)-N-(1-(3-(4-(2-(2,6-dioxopiperidin-3-yl)-1,3-dioxoisoindolin-4-yl)piperazin-1-yl)propanoyl)piperidin-4-yl)-3-methylbenzamide], the “Activity: ratio” value at PLK1 is listed as “++ (++<0.6)”. Besides, the IC50 is less than 0.05 µM in the assay with NCI-H526 cell line and more than 10 µM with MRC-5 cell line (setting [1]).
In the same order, the values of `COc1cc(C(=O)N[C@H]2CC[C@H](N3CCN(CCC4CCN(c5cccc6c5C(=O)N(C5CCC(=O)NC5=O)C6=O)CC4)CC3)CC2)c(F)cc1Nc1ncc2c(n1)N(C1CCCC1)CC(F)(F)C(=O)N2C` (stereo partly drawn) [Compound 114, 4-((9-cyclopentyl-7,7-difluoro-5-methyl-6-oxo-6,7,8,9-tetrahydro-5H-pyrimido[4,5-b][1,4]diazepin-2-yl)amino)-N-((1r,4r)-4-(4-(2-(1-(2-(2,6-dioxopiperidin-3-yl)-1,3-dioxoisoindolin-4-yl)piperidin-4-yl)ethyl)piperazin-1-yl)cyclohexyl)-2-fluoro-5-methoxybenzamide] are “++ (++<0.6)”, less than 0.2 µM and more than 10 µM.
Regarding `COc1cc(C(=O)NN2CCC(N3CC4(CCN(c5ccc6c(c5)CN(C5CCC(=O)NC5=O)C6=O)CC4)C3)CC2)ccc1Nc1ncc2c(n1)N(C(C)C)CC(F)(F)C(=O)N2C` (stereo not drawn) [Compound 219, 4-((7,7-difluoro-9-isopropyl-5-methyl-6-oxo-6,7,8,9-tetrahydro-5H-pyrimido[4,5-b][1,4]diazepin-2-yl)amino)-N-(4-(7-(2-(2,6-dioxopiperidin-3-yl)-1-oxoisoindolin-5-yl)-2,7-diazaspiro[3.5]nonan-2-yl)piperidin-1-yl)-3-methoxybenzamide], the “Activity: ratio” value on PLK1 is “++ (++<0.6)”. Moreover, the IC50 is less than 0.03 µM in the assay with NCI-H526 cell line and 13 µM in the assay on MRC-5 cell line (setting [1]).
For `COc1cc(C(=O)NN2CCC(CN3CCN(c4ccc5c(c4)C(=O)N(C4CCC(=O)NC4=O)C5=O)CC3)CC2)ccc1Nc1ncc2c(n1)N(C1CCCC1)CC(F)(F)C(=O)N2C` (stereo not drawn) [Compound 148, 4-((9-cyclopentyl-7,7-difluoro-5-methyl-6-oxo-6,7,8,9-tetrahydro-5H-pyrimido[4,5-b][1,4]diazepin-2-yl)amino)-N-(4-((4-(2-(2,6-dioxopiperidin-3-yl)-1,3-dioxoisoindolin-5-yl)piperazin-1-yl)methyl)piperidin-1-yl)-3-methoxybenzamide] the same measures were “++ (++<0.6)”, less than 0.05 µM and 13.2 µM.
For `COc1cc(C(=O)NC2CC(N(C)CCC3CCN(c4ccc5c(c4)C(=O)N(C4CCC(=O)NC4=O)C5=O)CC3)C2)ccc1Nc1ncc2c(n1)N(C1CCCC1)CC(F)(F)C(=O)N2C` (stereo not drawn) [Compound 106, 4-((9-cyclopentyl-7,7-difluoro-5-methyl-6-oxo-6,7,8,9-tetrahydro-5H-pyrimido[4,5-b][1,4]diazepin-2-yl)amino)-N-(3-((2-(1-(2-(2,6-dioxopiperidin-3-yl)-1,3-dioxoisoindolin-5-yl)piperidin-4-yl)ethyl)(methyl)amino)cyclobutyl)-3-methoxybenzamide] the same measures were “+++ (+++: <0.3)”, less than 0.1 µM and more than 10 µM.
With `COc1cc(C(=O)NC2CCCN(CCCN3CCN(c4cccc5c4C(=O)N(C4CCC(=O)NC4=O)C5=O)CC3)C2)ccc1Nc1ncc2c(n1)N(C1CCCC1)CC(F)(F)C(=O)N2C` (stereo not drawn) [Compound 144, 4-((9-cyclopentyl-7,7-difluoro-5-methyl-6-oxo-6,7,8,9-tetrahydro-5H-pyrimido[4,5-b][1,4]diazepin-2-yl)amino)-N-(1-(3-(4-(2-(2,6-dioxopiperidin-3-yl)-1,3-dioxoisoindolin-4-yl)piperazin-1-yl)propyl)piperidin-3-yl)-3-methoxybenzamide], the “Activity: ratio” value on PLK1 was “++ (++<0.6)”. In addition, the IC50 is less than 0.05 µM in the assay with NCI-H526 cell line and 4.08 µM with MRC-5 cell line.
In the case of `C=C[C@@]1(F)CN(C2CCCC2)c2nc(Nc3ccc(C(=O)NC4CCN(C(=O)CCN5CCN(c6cccc7c6C(=O)N(C6CCC(=O)NC6=O)C7=O)CC5)CC4)cc3OC)ncc2N(C)C1=O` (single isomer, unassigned) [Compound 108], the “Activity: ratio” value at PLK1 is given as “++ (++<0.6)”. The IC50 in the assay with NCI-H526 cell line was less than 0.1 µM; with MRC-5 cell line (setting [1]) it was more than 10 µM.
In the same order, the values of `COc1cc(C(=O)NC2CCN(CCCN3CCN(c4cccc5c4C(=O)N(C4CCC(=O)NC4=O)C5=O)CC3)CC2)ccc1Nc1ncc2c(n1)N(C1CCCC1)CC(F)(F)C(=O)N2C` (stereo not drawn) [Compound 60, 4-((9-cyclopentyl-7,7-difluoro-5-methyl-6-oxo-6,7,8,9-tetrahydro-5H-pyrimido[4,5-b][1,4]diazepin-2-yl)amino)-N-(1-(3-(4-(2-(2,6-dioxopiperidin-3-yl)-1,3-dioxoisoindolin-4-yl)piperazin-1-yl)propyl)piperidin-4-yl)-3-methoxybenzamide] are “++ (++<0.6)”, less than 0.03 µM and 4.19 µM.
For the compound `COc1cc(C(=O)NN2CCC(N3CC4(CCN(c5cc6c(cc5F)C(=O)N(C5CCC(=O)NC5=O)C6=O)CC4)C3)CC2)ccc1Nc1ncc2c(n1)N(C(C)C)CC(F)(F)C(=O)N2C` (stereo not drawn) [Compound 216, 4-((7,7-difluoro-9-isopropyl-5-methyl-6-oxo-6,7,8,9-tetrahydro-5H-pyrimido[4,5-b][1,4]diazepin-2-yl)amino)-N-(4-(7-(2-(2,6-dioxopiperidin-3-yl)-6-fluoro-1,3-dioxoisoindolin-5-yl)-2,7-diazaspiro[3.5]nonan-2-yl)piperidin-1-yl)-3-methoxybenzamide], the “Activity: ratio” value on PLK1 is recorded as “++ (++<0.6)”. The IC50 is less than 0.2 µM in the assay with NCI-H526 cell line and 27 µM in the assay with MRC-5 cell line (setting [1]).
Take `COc1cc(C(=O)NN2CCC(N3CCN(c4ccc5c(c4)C(=O)N(C4CCC(=O)NC4=O)C5=O)CC3)C2)ccc1Nc1ncc2c(n1)N(C(C)C)CC(F)(F)C(=O)N2C` (stereo not drawn) [Compound 154, 4-((7,7-difluoro-9-isopropyl-5-methyl-6-oxo-6,7,8,9-tetrahydro-5H-pyrimido[4,5-b][1,4]diazepin-2-yl)amino)-N-(3-(4-(2-(2,6-dioxopiperidin-3-yl)-1,3-dioxoisoindolin-5-yl)piperazin-1-yl)pyrrolidin-1-yl)-3-methoxybenzamide]: the “Activity: ratio” value at PLK1 was “++ (++<0.6)”. Moreover, the IC50 in the assay with NCI-H526 cell line was less than 0.1 µM; in the assay on MRC-5 cell line (setting [1]) it was more than 10 µM.
As to `COc1cc(C(=O)NN2CC(CN3CCN(c4cccc5c4C(=O)N(C4CCC(=O)NC4=O)C5=O)CC3)C2)ccc1Nc1ncc2c(n1)N(C(C)C)CC(F)(F)C(=O)N2C` (stereo not drawn) [Compound 161, 4-((7,7-difluoro-9-isopropyl-5-methyl-6-oxo-6,7,8,9-tetrahydro-5H-pyrimido[4,5-b][1,4]diazepin-2-yl)amino)-N-(3-((4-(2-(2,6-dioxopiperidin-3-yl)-1,3-dioxoisoindolin-4-yl)piperazin-1-yl)methyl)azetidin-1-yl)-3-methoxybenzamide], on PLK1, the “Activity: ratio” value is “++ (++<0.6)”. Further, the IC50 with NCI-H526 cell line is less than 0.03 µM; in the assay with MRC-5 cell line (setting [1]), more than 10 µM.

Usually IC50 stands for the midpoint of a concentration-inhibition curve.
